Patent US12329158B2, “Large-scale methods of uniformly coating packaging surfaces with a volatile antimicrobial to preserve food freshness” (AGROFRESH INC., priority 2013, dated 2025)

Experiments:
Penicillium expansum [1] = assay: Blue mold on apple and pear, contact assay (Example 25); type: in vivo; details: Contact (dip); rate not given; day 3 at 21 C after 5 days at 1 C
Experimental: A 250 mL solution of each concentration is used to dip two inoculated fruits, one minute per fruit, performed in triplicate per rate. The dipped fruits are then placed back into the clamshells and then into the SnapWare container and incubated at 1° C. for 5 days. […] Volatile application of Compound A results in excellent inhibition of browning and sporulation, whereas all other active ingredients result in no or little inhibition.

Botrytis cinerea [2] = assay: Dose response, vapor-coated clamshells; strawberries (Example 3); type: in vivo; details: Inoculated Fruit, sublimation
Experimental: Five milligrams of Compound A was dissolved in 1 ml of ethanol prior to being uniformly administered to the interior of the clamshell by painting or spraying, and then dried for 5 minutes. After coating the clamshells with Compound A using various application techniques (i.e., sublimation, spraying, or painting), eight ethanol-washed strawberries were placed in the clamshell with stem end facing downwards. Each strawberry fruit was wounded using a T15 screwdriver tip to a uniform depth of eight mm (8 mm). […] Uninoculated strawberries were removed from their commercial package, and directly transferred into treated clamshells without any washing or inoculation steps.
Treated clamshells lids were closed, and then placed at 1° C. for an initial time period of 5 days. Clamshells were then removed from low temperature, and held for a second time period of 6 days at room temperature where the point of inoculation on the strawberry fruits was assessed for indication of disease incidence reported as a percentage (%). Severity of disease incidence was also reported.
This in vivo assay was used to evaluate the ability of vaporized Compound A to volatilize from a clamshell in order to control or inhibit pathogenic microorganisms. This experiment was conducted exactly as described in Example 1, with a few exceptions. After equilibrating the clamshell overnight at 21° C., Compound A was administered to the clamshell as a vapor only. In addition, Compound A was vapor-coated onto the surface of the clamshell at a final treatment rate of 3.16 mg/clamshell, 1 mg/clamshell, or 0.316 mg/clamshell. After vapor-coating application, Compound A headspace was permitted to equilibrate overnight at 21° C. Strawberries were inoculated with Botrytis cinerea, placed within the clamshells for an initial time period, and assessed for disease incidence and severity over a second time period as described in Example 1.

Penicillium expansum [3] = assay: Blue mold on apple, volatile assay; type: in vivo
Experimental: Compound A is mixed with acetone and 250 μL of the mixture is pipetted into a small glass tube. […] After incubation, fruits are evaluated by measuring the diameter (mm) of rot development (browning) up to 7 days at 21° C.

Escherichia coli = assay: Volatile assay against bacterial pathogens, MBC (Example 12); type: cell-based; details: E. coli; headspace concentration; 48 hours at 23 C
Experimental: (§1) 12-Well (6.5 mL volume per well) microtiter plates are used for the in vitro inhibition assay for volatile antimicrobial Compound A against additional bacterial pathogens. A 3-mL volume of Nutrient agar is added to each well and allowed to dry before introducing the pathogen. Escherichia coli, Pectobacterium carotovorum, Xanthomonas axonopodis and Salmonella enterica cell suspensions are adjusted to an optical density of 0.2 to 0.35, and further diluted 1/10, and 15 μL is pipetted to the center of each well and tilted to distribute uniformly. A Whatman #1 filter paper (CAT 1001-0155) is placed on the underside of a polyethylene PCR plate sealing film. […] The films with the treated disks are then applied over the inoculated plates and sealed. Plates are inverted, and incubated at 23° C. for 48 hours. After the incubation period, the bacteria colonies are dislodged in sterile water containing tween 80 (0.001%) and the optical density (OD; 600 nm) is determined. Results are summarized in Table 6, where the headspace concentration required to control at least 80% of bacterial growth is reported.

Salmonella enterica = assay: as above; type: cell-based; details: S. enterica; headspace concentration; 48 hours at 23 C
Experimental: as §1

Xanthomonas axonopodis = assay: as above; type: cell-based; details: X. axonopodis; headspace concentration; 48 hours at 23 C
Experimental: as §1

[4] = tested on: Pectobacterium carotovorum; assay: as above; type: cell-based; details: P. carotovorum; headspace concentration; 48 hours at 23 C
Experimental: as §1

Botrytis cinerea [5] = assay: Gray mold on strawberry, volatile assay (Example 23); type: in vivo
Experimental: Eight strawberries (per repetition, in triplicate) are placed in an industry standard 1-lb PET clamshell with the stem-end facing down.
Compound A is mixed acetone and 250 μL of the mixture is pipetted into a small glass tube. […] After incubation, fruits are evaluated for disease (scale 0 to 4, with ≤1 indicating marketable fruit and 4 indicating ≥50% of fruit surface covered by pathogen) up to 4 days at 21° C.

With `OB1OCc2cc(F)ccc21` [Compound A, 5-fluoro-1,3-dihydro-1-hydroxy-2,1-benzoxaborole] the “Apple Browning (mm)” value (Penicillium expansum [1]) was 9.9 mm, the “Apple Sporulation (mm)” value (Penicillium expansum [1]) was 2.3 mm and the “Pear Browning (mm)” value (Penicillium expansum [1]) was 18.9 mm. For the same compound, the “Pear Sporulation (mm)” value (Penicillium expansum [1]) was 8.4 mm, the “Gray Mold Severity (0-4)” value (Botrytis cinerea [2]; 0.316 mg per clamshell, Day 1) was 0.4 and the “Gray Mold Severity (0-4)” value (Botrytis cinerea [2]; 0.316 mg per clamshell, Day 2) was 1.3. The “Gray Mold Severity (0-4)” value (Botrytis cinerea [2]; 0.316 mg per clamshell, Day 3) was 2.2, the “Gray Mold Severity (0-4)” value (Botrytis cinerea [2]; 0.316 mg per clamshell, Day 4) was 3.4 and the “Gray Mold Severity (0-4)” value (Botrytis cinerea [2]; 0.316 mg per clamshell, Day 5) was 3.8. The “Gray Mold Severity (0-4)” value (Botrytis cinerea [2]; 0.316 mg per clamshell, Day 6) was 3.9, the “Gray Mold Severity (0-4)” value (Botrytis cinerea [2]; 1.00 mg per clamshell, Day 1) was 0.0 and the “Gray Mold Severity (0-4)” value (Botrytis cinerea [2]; 1.00 mg per clamshell, Day 2) was 0.0. The “Gray Mold Severity (0-4)” value (Botrytis cinerea [2]; 1.00 mg per clamshell, Day 3) was 0.0, the “Gray Mold Severity (0-4)” value (Botrytis cinerea [2]; 1.00 mg per clamshell, Day 4) was 0.1 and the “Gray Mold Severity (0-4)” value (Botrytis cinerea [2]; 1.00 mg per clamshell, Day 5) was 0.4. For the same compound, the “Gray Mold Severity (0-4)” value (Botrytis cinerea [2]; 1.00 mg per clamshell, Day 6) was 0.7, the “Gray Mold Severity (0-4)” value (Botrytis cinerea [2]; 3.16 mg per clamshell, Day 1) was 0.0 and the “Gray Mold Severity (0-4)” value (Botrytis cinerea [2]; 3.16 mg per clamshell, Day 2) was 0.0. For the same compound, the “Gray Mold Severity (0-4)” value (Botrytis cinerea [2]; 3.16 mg per clamshell, Day 3) was 0.0, the “Gray Mold Severity (0-4)” value (Botrytis cinerea [2]; 3.16 mg per clamshell, Day 4) was 0.0 and the “Gray Mold Severity (0-4)” value (Botrytis cinerea [2]; 3.16 mg per clamshell, Day 5) was 0.1. The “Gray Mold Severity (0-4)” value (Botrytis cinerea [2]; 3.16 mg per clamshell, Day 6) was 0.2, the “Browning Rot (diameter; mm)” value (Penicillium expansum [3]; 0.02 mg/L, Day 0) was 0.0 mm and the “Browning Rot (diameter; mm)” value (Penicillium expansum [3]; 0.02 mg/L, Day 2) was 0.9 mm. The “Browning Rot (diameter; mm)” value (Penicillium expansum [3]; 0.02 mg/L, Day 4) was 2.8 mm, the “Browning Rot (diameter; mm)” value (Penicillium expansum [3]; 0.02 mg/L, Day 7) was 6.9 mm and the “Browning Rot (diameter; mm)” value (Penicillium expansum [3]; 0.1 mg/L, Day 0) was 0.0 mm. For the same compound, the “Browning Rot (diameter; mm)” value (Penicillium expansum [3]; 0.1 mg/L, Day 2) was 0.0 mm, the “Browning Rot (diameter; mm)” value (Penicillium expansum [3]; 0.1 mg/L, Day 4) was 0.3 mm and the “Browning Rot (diameter; mm)” value (Penicillium expansum [3]; 0.1 mg/L, Day 7) was 2.0 mm. For the same compound, the “Browning Rot (diameter; mm)” value (Penicillium expansum [3]; 0.5 mg/L, Day 0) was 0.0 mm, the “Browning Rot (diameter; mm)” value (Penicillium expansum [3]; 0.5 mg/L, Day 2) was 0.0 mm and the “Browning Rot (diameter; mm)” value (Penicillium expansum [3]; 0.5 mg/L, Day 4) was 0.0 mm. For the same compound, the “Browning Rot (diameter; mm)” value (Penicillium expansum [3]; 0.5 mg/L, Day 7) was 0.4 mm, the “Browning Rot (diameter; mm)” value (Penicillium expansum [3]; 2.5 mg/L, Day 0) was 0.0 mm and the “Browning Rot (diameter; mm)” value (Penicillium expansum [3]; 2.5 mg/L, Day 2) was 0.0 mm. The “Browning Rot (diameter; mm)” value (Penicillium expansum [3]; 2.5 mg/L, Day 4) was 0.0 mm, the “Browning Rot (diameter; mm)” value (Penicillium expansum [3]; 2.5 mg/L, Day 7) was 0.0 mm and the “Rate (mg/L) offering at least 80% control” value (“Rate … at least 80% control” below) (Escherichia coli) was 35.7 mg/L. The “Rate … at least 80% control” value (Salmonella enterica) was 17.9 mg/L, the “Rate … at least 80% control” value (Xanthomonas axonopodis) was 4.5 mg/L and the “Rate … at least 80% control” value [4] was 2.2 mg/L. For the same compound, the “Disease Severity (0 to 4)” value (Botrytis cinerea [5]; 0.02 mg/L, Day 0) was 0.0, the “Disease Severity (0 to 4)” value (Botrytis cinerea [5]; 0.02 mg/L, Day 1) was 0.0 and the “Disease Severity (0 to 4)” value (Botrytis cinerea [5]; 0.02 mg/L, Day 2) was 0.1. The “Disease Severity (0 to 4)” value (Botrytis cinerea [5]; 0.02 mg/L, Day 3) was 0.2, the “Disease Severity (0 to 4)” value (Botrytis cinerea [5]; 0.02 mg/L, Day 4) was 0.7 and the “Disease Severity (0 to 4)” value (Botrytis cinerea [5]; 0.1 mg/L, Day 0) was 0.0. The “Disease Severity (0 to 4)” value (Botrytis cinerea [5]; 0.1 mg/L, Day 1) was 0.0, the “Disease Severity (0 to 4)” value (Botrytis cinerea [5]; 0.1 mg/L, Day 2) was 0.0 and the “Disease Severity (0 to 4)” value (Botrytis cinerea [5]; 0.1 mg/L, Day 3) was 0.0. The “Disease Severity (0 to 4)” value (Botrytis cinerea [5]; 0.1 mg/L, Day 4) was 0.0, the “Disease Severity (0 to 4)” value (Botrytis cinerea [5]; 0.5 mg/L, Day 0) was 0.0 and the “Disease Severity (0 to 4)” value (Botrytis cinerea [5]; 0.5 mg/L, Day 1) was 0.0. For the same compound, the “Disease Severity (0 to 4)” value (Botrytis cinerea [5]; 0.5 mg/L, Day 2) was 0.0, the “Disease Severity (0 to 4)” value (Botrytis cinerea [5]; 0.5 mg/L, Day 3) was 0.0 and the “Disease Severity (0 to 4)” value (Botrytis cinerea [5]; 0.5 mg/L, Day 4) was 0.0. For the same compound, the “Disease Severity (0 to 4)” value (Botrytis cinerea [5]; 2.5 mg/L, Day 0) was 0.0, the “Disease Severity (0 to 4)” value (Botrytis cinerea [5]; 2.5 mg/L, Day 1) was 0.0 and the “Disease Severity (0 to 4)” value (Botrytis cinerea [5]; 2.5 mg/L, Day 2) was 0.0. For the same compound, the “Disease Severity (0 to 4)” value (Botrytis cinerea [5]; 2.5 mg/L, Day 3) was 0.0 and the “Disease Severity (0 to 4)” value (Botrytis cinerea [5]; 2.5 mg/L, Day 4) was 0.0.
